Where a name gives a salt, the structure may show the parent alone.
How the values were obtained:
[1] = test system: human dermal fibroblast (hDF); test: High-throughput proliferation screening assay of human dermal fibroblasts; assay type: cell-based; conditions: at concentration of 200 nM; 3 days of treatment; DAPI imaging
Protocol: For the proliferation assay, human dermal fibroblast (hDF) were plated into 96 well Black/Clear bottom tissue-culture treated plates (Corning) at 1,000 cells/well in DMEM (Gibco) 15% FBS (HyClone). […] After 3 days of treatment, cells were fixed and stained with DAPI and analyzed using Roche Cellavista High-Content Imaging System (see FIG. 1).

EGF = test: High-throughput screening assay for EGF production (ELISA of hDF supernatants); assay type: cell-based, human; conditions: 3 days of treatment
Protocol: (§1) For EGF production assay hDFs were plated into 96 well Clear tissue-culture treated plates (Falcon) at 19,000 cells/well in DMEM (Gibco) 1× N2/B27 Supplement (Invitrogen). […] After 3 days of treatment, supernatants were collected and analyzed for EGF content using EGF Human ELISA Kit (Abcam) and with BioTek Synergy 2 Multi-Detection Microplate Reader (see FIG. 1).

Collagen Type 1 = test: High-throughput screening assay for Collagen Type 1 production (Procollagen Type 1C-Peptide EIA of hDF supernatants); assay type: cell-based, human; conditions: 3 days of treatment
TGFβ1 = test: High-throughput screening assay for TGFβ1 production (ELISA of hDF supernatants); assay type: cell-based, human; conditions: 3 days of treatment
Protocol: as §1, with “TGFβ1” for “EGF”

FGF7 = test: High-throughput screening assay for FGF7 production (ELISA of hDF supernatants); assay type: cell-based, human; conditions: at concentration of 25 μM; 3 days of treatment
Protocol: as §1, with “FGF7” for “EGF”

[2] = at concentrations of 25 and 12.5 μM

Cl.Cl.Nc1ncnc2nc(-c3ccc(N4CCOCC4)nc3)cc(-c3cccc(Br)c3)c12 [ABT702 dihydrochloride]
proliferation level in hDFs [1]: induced the highest proliferation level

O=C(O)c1ccc2cc(-c3ccc(O)c(C45CC6CC(CC(C6)C4)C5)c3)ccc2c1 [CD 437]
production level of EGF in hDFs (EGF; [2]): induced the highest production level

O=C(O)c1ccc(-c2ccc3cc(O)c(C45CC6CC(CC(C6)C4)C5)cc3c2)cc1 [CD 1530]
production level of EGF in hDFs (EGF; [2]): induced the highest production level

CN1Cc2ccccc2[C@@H]2c3cccc4[nH]cc(c34)C[C@H]21 [CY 208-243]
production level of EGF in hDFs (EGF; at concentrations of 12.5 μM): induced the highest production level

O=C1CCc2cc(OCCCCc3nnnn3C3CCCCC3)ccc2N1 [Cilostazol]
production level of Collagen Type 1 in hDFs (Collagen Type 1; at concentration of 6.25 μM): induced the highest production level

CN1CCC[C@@H]1CCO[C@](C)(c1ccccc1)c1ccc(Cl)cc1 [Clemastine fumarate]
production level of Collagen Type 1 in hDFs (Collagen Type 1; at concentration of 780 nM): induced the highest production level

OCCN(CCO)c1nc(N2CCCCC2)c2nc(N(CCO)CCO)nc(N3CCCCC3)c2n1 [Dipyridamole]
production level of Collagen Type 1 in hDFs (Collagen Type 1; at concentration of 390 nM): induced the highest production level

CN1CC(=O)NC1=NC(=O)Nc1cccc(Cl)c1 [Fenobam]
proliferation level in hDFs [1]: induced the highest proliferation level

CS(=O)(=O)O.N=C(N)SCCc1ccc(OCc2ccc([N+](=O)[O-])cc2)cc1 [KB-R7943 mesylate]
production level of TGFβ1 in hDFs (TGFβ1; at concentration of 1.6 μM): induced the highest production level

CCCCC[C@H](O)/C=C/[C@H]1[C@H](O)CC(=O)[C@@H]1C/C=C\CCCC(=O)O [Prostaglandin E2]
production level of FGF7 in hDFs (FGF7): induced the highest production level

CN(C)C(=O)C(=O)c1cn(C)c2cc(Cl)c(C(=O)N3CCC(Cc4ccc(F)cc4)CC3)cc12 [SX 011]
proliferation level in hDFs [1]: induced the highest proliferation level

Cc1cc(C)c(S(=O)(=O)Nc2cccc(C(F)(F)F)c2)c(C)c1 [m-3M3FBS]
production level of TGFβ1 in hDFs (TGFβ1; at concentration of 24 nM): induced the highest production level

PSB 06126
production level of EGF in hDFs (EGF; at concentration of 12.5 (unit not given)): induced the highest production level

Proxyfan Oxalate
production level of TGFβ1 in hDFs (TGFβ1; at concentration of 24 nM): induced the highest production level

From patent US10335422B2, “Small molecules that promote skin regeneration” (International Stem Cell Corporation, priority 2013, dated 2019)
